{"source": "patent US20100093760A1", "about": "“METHODS FOR IDENTIFYING COMPOUNDS THAT MODULATE CELL SIGNALING AND METHODS EMPLOYING SUCH COMPOUNDS” (The General Hospital Corporation, priority 2006, published 2010)", "key": {"zebrafish embryos [1]": {"test_system": "zebrafish embryos", "format": "in vivo", "conditions": "zebrafish, in vivo", "experimental": "According to one example of the whole animal-based screening methods of the invention, 1-2 hour old zebrafish embryos are arrayed in the wells of 96-well plates, three embryos per well. A chemical library, which is comprised of tens of thousands of diverse small molecules, is then pin-transferred into the wells at a final concentration of ˜2 to 10 uM. Embryos are observed over the course of next 24-48 hours and scored under a dissecting microscope for phenotype consistent with loss of BMP signaling (dorsalized embryos, FIG. 1) or with the loss of nodal signaling (cyclopia, FIG. 2).\nSmall molecule screening in zebrafish was performed as previously described (Peterson et al., Nat. Biotechnol. 22:595-599, 2004) with several modifications. Pairs of wild-type zebrafish were mated, and newly-fertilized eggs were arrayed in triplicate in 96-well plates containing E3 buffer. At 4 hours post fertilization (hpf), compounds were added to wells at 5-10 μM. Embryos were incubated at 28.5° C., and gross morphology of embryos was examined at 12, 24, and 48 hpf for dorsalization or ventralization of embryonic axis, as previously described (Mullins et al., Development 123:81-93, 1996). In total, 7,570 compounds were screened, including synthetic screening compounds (Chembridge Corporation, 5,580 small molecules) and known bioactive compounds (Microsource Discovery Systems, 1,840 small molecules and Sigma-Aldrich, 150 small molecules). For follow up studies, Compound C/Dorsomorphin and Ara-A (adenine 9-β-D-arabinofurano-side) were purchased from Sigma (St. Louis, Mo.), and C75 was purchased from EMD Biosciences (San Diego, Calif.)."}, "[2]": {"test_system": "hepcidin (HAMP) and Id1 mRNA", "assay": "Hepcidin and Id1 mRNA qRT-PCR in Hep3B cells", "format": "cell-based, human", "experimental": "Quantitative RT-PCR was performed for mRNA encoding Id1 or human hepcidin (HAMP) as previously described (Babitt et al., Nat. Genet. 38:531-539, 2006; Yu et al., J. Biol. Chem. 280:24443-24450, 2005), and normalized to 18S ribosomal RNA (rRNA) or β-actin mRNA levels."}, "zebrafish embryos [3]": {"test_system": "zebrafish embryos", "format": "in vivo", "conditions": "for % Dorsalized / Dorsalized, number of embryos / Early lethality, number of embryos / Total survivors: treatment at 3 hpf; for phenotype: 8 ng of either morpholino alone, 24 hpf"}, "MAPK p38": {"test_system": "MAPK p38", "assay": "Immunoblot of BMP4-mediated MAPK p38 phosphorylation in PASMCs", "format": "cell-based, murine", "conditions": "noggin 100-200 ng/ml pretreatment 30 minutes"}, "[4]": {"test_system": "BMP-mediated SMAD1/5/8 phosphorylation", "assay": "Immunoblot of BMP-induced SMAD1/5/8 phosphorylation in PASMCs", "format": "cell-based, murine", "conditions": "PASMCs, noggin 100-200 ng/ml pretreatment 30 minutes", "experimental": "Wild-type and BMPR-II-deficient PASMC were isolated as previously described (Yu et al., J. Biol. Chem. 280:24443-24450, 2005), and cultured in RPMI medium (Invitrogen) supplemented with 10% FBS. C2C12 cells (American Type Culture Collection, Manassas, Va.) were cultured in DMEM supplemented with glutamine and 10% FBS. HepG2 cells and Hep3B cells (ATCC) were cultured in Minimal Essential Alpha Medium with L-glutamine (α-MEM, Invitrogen) containing 10% FBS. For studies of SMAD activation in vitro, PASMC were incubated in 0.5% FCS RPMI for 24 hours, followed by preincubation with drug compounds, noggin, or vehicle for 30 minutes, followed the addition of recombinant BMPs 2, 4, 6, or 7, or TGF-β1 or Activin A (R&D Systems, Minneapolis, Minn.) for 30 minutes.\nCell extracts or tissues were mechanically homogenized in SDS-lysis buffer (62.5 mM Tris-HCl (pH 6.8), 2% SDS, 10% glycerol, 50 mM DTT, 0.01% bromophenol blue); separated by SDS-PAGE; immunoblotted with anti-phospho-SMAD1/5/8, anti-phospho-SMAD2 (Cell Signaling, Beverly, Mass.), or anti-α-tubulin (Upstate/Millipore, Billerica, Mass.) Abs; and visualized using ECL Plus (GE Healthcare, Piscataway, N.J.). Levels of immunoreactive proteins were quantitated by ImageQuant software on a Storm phosphorimager (GE Healthcare).\nThe statistical significance of compared measurements was measured using the student's two-tailed T-test or one-way ANOVA with Bonferroni correction. Hill plot analysis of Compound C/Dorsomorphin inhibition of SMAD1/5/8 phosphorylation was performed using GraFit software (Erithacus Software, Surrey, England)."}}, "note": "Entries after “also recorded” stand apart in the source; their conditions may differ. Like-named read-outs stand apart in the source and are kept apart here."}
{"molecule": "Nc1ncnc2c1ncn2[C@@H]1O[C@H](CO)[C@@H](O)[C@@H]1O", "note": "[Ara-A, adenine 9-β-D-arabinofurano-side, reference compound]", "values": [{"measurement": "dorsalization by structurally-unrelated inhibitors of AMPK activity", "setting": "zebrafish embryos [1]", "value": "did not dorsalize zebrafish embryos"}, {"measurement": "toxicity of structurally-unrelated inhibitors of AMPK activity", "setting": "zebrafish embryos [1]", "value": "non-specific toxicity such as developmental delay and death"}, {"measurement": "effect on BMP4-induced hepcidin mRNA expression", "setting": "[2]; Ara-A 250 μM 30 minutes before BMP4 20 ng/ml", "value": "did not impair; also recorded: did not significantly affect"}, {"measurement": "lowering of baseline hepcidin expression", "setting": "[2]; Ara-A 250 μM alone", "value": 40, "unit": "%"}]}
{"molecule": "C=C1C(=O)OC(CCCCCCCC)C1C(=O)O", "note": "(stereo not shown) [Compound C75, reference compound]", "values": [{"measurement": "dorsalization by structurally-unrelated inhibitors of AMPK activity", "setting": "zebrafish embryos [1]", "value": "did not dorsalize zebrafish embryos"}, {"measurement": "toxicity of structurally-unrelated inhibitors of AMPK activity", "setting": "zebrafish embryos [1]", "value": "non-specific toxicity such as developmental delay and death"}, {"measurement": "% Dorsalized", "setting": "zebrafish embryos [3]; C75 4 μM", "value": 0, "unit": "%"}, {"measurement": "Dorsalized, number of embryos", "setting": "zebrafish embryos [3]; C75 4 μM", "value": 0}, {"measurement": "Early lethality, number of embryos", "setting": "zebrafish embryos [3]; C75 4 μM", "value": 0}, {"measurement": "Total survivors", "setting": "zebrafish embryos [3]; C75 4 μM", "value": 20}, {"measurement": "% Dorsalized", "setting": "zebrafish embryos [3]; C75 20 μM", "value": 0, "unit": "%"}, {"measurement": "Dorsalized, number of embryos", "setting": "zebrafish embryos [3]; C75 20 μM", "value": 0}, {"measurement": "Early lethality, number of embryos", "setting": "zebrafish embryos [3]; C75 20 μM", "value": 0}, {"measurement": "Total survivors", "setting": "zebrafish embryos [3]; C75 20 μM", "value": 40}, {"measurement": "% Dorsalized", "setting": "zebrafish embryos [3]; C75 40 μM", "value": 0, "unit": "%"}, {"measurement": "Dorsalized, number of embryos", "setting": "zebrafish embryos [3]; C75 40 μM", "value": 0}, {"measurement": "Early lethality, number of embryos", "setting": "zebrafish embryos [3]; C75 40 μM", "value": 0}, {"measurement": "Total survivors", "setting": "zebrafish embryos [3]; C75 40 μM", "value": 40}, {"measurement": "% Dorsalized", "setting": "zebrafish embryos [3]; C75 100 μM", "value": 0, "unit": "%"}, {"measurement": "Dorsalized, number of embryos", "setting": "zebrafish embryos [3]; C75 100 μM", "value": 0}, {"measurement": "Early lethality, number of embryos", "setting": "zebrafish embryos [3]; C75 100 μM", "value": 20}, {"measurement": "Total survivors", "setting": "zebrafish embryos [3]; C75 100 μM", "value": 0}, {"measurement": "% Dorsalized", "setting": "zebrafish embryos [3]; C75 200 μM", "value": 0, "unit": "%"}, {"measurement": "Dorsalized, number of embryos", "setting": "zebrafish embryos [3]; C75 200 μM", "value": 0}, {"measurement": "Early lethality, number of embryos", "setting": "zebrafish embryos [3]; C75 200 μM", "value": 40}, {"measurement": "Total survivors", "setting": "zebrafish embryos [3]; C75 200 μM", "value": 0}, {"measurement": "% Dorsalized", "setting": "zebrafish embryos [3]; C75 400 μM", "value": 0, "unit": "%"}, {"measurement": "Dorsalized, number of embryos", "setting": "zebrafish embryos [3]; C75 400 μM", "value": 0}, {"measurement": "Early lethality, number of embryos", "setting": "zebrafish embryos [3]; C75 400 μM", "value": 40}, {"measurement": "Total survivors", "setting": "zebrafish embryos [3]; C75 400 μM", "value": 0}, {"measurement": "dorsalization phenotype", "setting": "zebrafish embryos [3]; C75, any concentration tested (1-100 μg/ml), from 3 hpf", "value": "without evidence of dorsalization"}]}
{"molecule": "NC(=O)c1ccc(-c2nc(-c3ccc4c(c3)OCO4)c(-c3ccccn3)[nH]2)cc1", "note": "[SB-431542, reference compound]", "values": [{"measurement": "zebrafish embryo phenotype", "setting": "zebrafish embryos [3]; known specific inhibitor of the TGF-β/activin/nodal branch", "value": "cyclopia, but not dorsalization"}]}
{"molecule": "αA: splice-targeting morpholino against zebrafish AMPK α-subunit ortholog αA (CACCCTGGAAAGTT TTACCTTTGAC) (antisense CACCCTGGAAAGTTTTACCTTTGAC; all phosphorodiamidate morpholino (PMO)) [reference compound]", "values": [{"measurement": "phenotype", "setting": "zebrafish embryos [3]", "value": "did not exhibit any phenotype"}]}
{"molecule": "αB: splice-targeting morpholino against zebrafish AMPK α-subunit ortholog αB (TAAATGAACA GACTTAACTCTTCAC) (antisense TAAATGAACAGACTTAACTCTTCAC; all phosphorodiamidate morpholino (PMO)) [reference compound]", "values": [{"measurement": "phenotype", "setting": "zebrafish embryos [3]", "value": "did not exhibit any phenotype"}]}
{"molecule": "noggin: soluble BMP antagonist; preferential inhibitor of BMP2 and BMP4 activity (protein, UniProt Q13253 28-232, looked up) Noggin: QHYLHIRPAPSDNLPLVDLIEHPDPIFDPKEKDLNETLLRSLLGGHYDPGFMATSPPEDRPGGGGGAAGGAEDLAELDQLLRQRPSGAMPSEIKGLEFSEGLAQGKKQRLSKKLRRKLQMWLWSQTFCPVLYAWNDLGSRFWPRYVKVGSCFSKRSCSVPEGMVCKPSKSVHLTVLRWRCQRRGGQRCGWIPIQYPIISECKCSC", "values": [{"measurement": "effect on BMP4-mediated phosphorylation of MAPK p38", "setting": "MAPK p38", "value": "inhibited"}, {"measurement": "effect on BMP4-mediated phosphorylation of SMAD1/5/8", "setting": "[4]", "value": "inhibited"}]}
{"molecule": "BMP4: recombinant bone morphogenetic protein ligand (R&D Systems) (protein, UniProt P12644 293-408, looked up) Bone morphogenetic protein 4: SPKHHSQRARKKNKNCRRHSLYVDFSDVGWNDWIVAPPGYQAFYCHGDCPFPLADHLNSTNHAIVQTLVNSVNSSIPKACCVPTELSAISMLYLDEYDKVVLKNYQEMVVEGCGCR", "values": [{"measurement": "increase in hepcidin mRNA", "setting": "[2]; BMP4 20 ng/ml, four hours", "value": 35, "unit": "fold"}]}
